Laboratory results published in ChEMBL document CHEMBL1129719, “The synthesis of a radioligand with high potency and selectivity for CCKB/ gastrin receptors” (Bioorg Med Chem Lett, 1996).

What was measured:
[1] = species on record: Rattus norvegicus; assay: Bmax value was determined in rat cerebral cortical membranes
[2] = species on record: Rattus norvegicus; assay: pKD value in rat cerebral cortical membranes; type: functional
[3] = biological target: T1, Gastrin/cholecystokinin type B receptor (Rattus norvegicus, UniProt P30553); assay: Compound was tested for binding affinity against Cholecystokinin type B receptor in rat cortical membranes using L-365260 as the radioligand.; type: cell membranes
T1 sequence (P30553 whole entry): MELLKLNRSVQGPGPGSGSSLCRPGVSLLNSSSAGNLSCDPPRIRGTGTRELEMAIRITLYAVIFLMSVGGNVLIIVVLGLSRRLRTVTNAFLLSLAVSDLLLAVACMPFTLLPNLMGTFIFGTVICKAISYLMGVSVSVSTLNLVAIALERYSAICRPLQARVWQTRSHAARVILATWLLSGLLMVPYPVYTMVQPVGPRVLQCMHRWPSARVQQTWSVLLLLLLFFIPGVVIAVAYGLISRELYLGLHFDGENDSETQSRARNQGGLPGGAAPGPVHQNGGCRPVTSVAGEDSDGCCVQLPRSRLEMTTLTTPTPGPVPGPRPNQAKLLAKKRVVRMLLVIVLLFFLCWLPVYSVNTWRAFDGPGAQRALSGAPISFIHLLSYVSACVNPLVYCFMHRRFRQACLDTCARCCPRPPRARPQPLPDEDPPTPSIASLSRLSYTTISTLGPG

Ki [3]: 23.4 nM
SMILES: O=C(O)c1cc(NC(=O)[C@H](Cc2ccccc2)NC(=O)c2cc3cc[nH]c3cc2C(=O)NCC23CC4CC(CC(C4)C2)C3)cc(C(=O)O)c1
Bmax [1]: 3.61 pM/g
pKD [2]: 9.48
